According to US20140350117A1, “Topical Scar Treatment Composition and Method of Using Same” (PROFESSIONAL COMPOUNDING CENTERS OF AMERICA, priority 2013, published 2014):
Structures can show the parent of a compound that is named as a salt.

Legend:
[1] = test system: keloid and hypertrophic scar cells; details: stated to correspond to about 0.01% tamoxifen citrate; cited from earlier work
collagen = details: cited from earlier work
TGF-β = assay: luciferase bioassay utilizing mink lung epithelial cells for total TGF-β in keloid fibroblasts culture; format: cell-based; details: 48-hour exposure
Source text: TGF-β is correlated with luciferase activity and reported in relative light units.

fibroblast cells = details: cited from earlier work

## CC/C(=C(\c1ccccc1)c1ccc(OCCN(C)C)cc1)c1ccccc1 [tamoxifen citrate]
[1]
  concentrations having a deadly effect on keloid and hypertrophic scar cells: greater than 20 μM
collagen
  synthesis of collagen by keloid fibroblasts: decreasing the synthesis of collagen
TGF-β
  total TGF-β levels: dose-dependent decrease
TGF-β; about 8 μM
  percent reduction of TGF-β: about 75%
TGF-β; about 8 μM, reduced from about 200 pg/ml
  TGF-β level after treatment: about 50 pg/ml
Fibroblast cells
  proliferation of normal dermal and keloid fibroblasts: decrease proliferation
